Entries after “also recorded” stand apart in the source; their conditions may differ.
Columns and labels:
[1] = test system: VE cadherin in HUVEC cells; assay: Immunostaining of VE cadherin in HUVEC cells; format: cell-based, human; conditions: LPS 1 μg/ml + UNC0642 2.5 nM, 24 hours
Experimental: HUVEC cells were seeded onto Lab-Tek II Chamber slide system at 1×10^6 cells/ml and grown to confluency. At 80-95% confluency they were treated with either the vehicle, LPS (1 μg/ml), LPS (1 μg/ml)+UNC0642 (2.5 nM) or UNC0642 (2.5 nM) for 24 hours. Then the following steps for immunostaining were performed • 1. Fixed the cells in 4% formaldehyde in warm PBS for 20 minutes at room temperature • 2. Aspirated the fixative • 3. Washed 3 times in PBS, 5 minutes each • 4. Blocked in blocking buffer for 2 hours at room temperature • 5. Aspirated the blocking buffer • 6. Added primary antibody VE cadherin (monoclonal VE Cad; cell signalling 2500S) at a dilution of 1:200 and incubated overnight at 4° C. • 7. Washed 3 times in PBS, 10 minutes each • 8. Added secondary antibody (goat anti-rabbit IgG Alexa Fluor 568; 1:1000 and Alexa Fluor 488 phalloidin; 1:1,000) and incubated for 2 hours at room temperature. • 9. Washed the cells 3 times in PBS, 10 minutes each at room temperature and mounted with a cover slip in 4′,6-diamidino-2-phenylindole (DAPI) Vectashield.
Images were taken with a Zeiss™ confocal microscope. […] (FIG. 10)

[2] = test system: LPS-induced vascular leakage; assay: Vascular leakage (leaked red blood cells in tailfin) in LPS-treated zebrafish larvae; format: in vivo
Experimental: (§1) An LPS induced zebrafish sepsis model which mimics the hallmarks of human sepsis was developed (Philip et al., 2017). Zebrafish show varied susceptibility and responsiveness to LPS from different bacterial strains. Exposure of zebrafish larvae at 3 days post-fertilization (dpf) to two types of LPS (LPS from Escherichia coli 0111:B4 (Sigma) at 100 μg/ml for 5-6 hrs; or LPS from Salmonella at 27 μg/ml for 24 hrs) were both effective in inducing tail fin swelling, increased ROS production, increased vascular leakage and increased mortality.
3 dpf Tg (flk1:GFP; gata-1:Dsred) double transgenic larvae were exposed to Vehicle, LPS (100 μg/ml) or LPS+1 μM UNC0642 by static immersion for 6 h at 28.5° C. to induce endothe-lial dysfunction and the resulting leakage of red blood cells. The larvae were then imaged using a Leica fluorescence microscope (Leica Microsystems, Wetzlar, Germany). Red blood cells that leaked out into the tailfin region were quantified.
3 dpf larvae were exposed to LPS by immersion technique. […] Control larvae were exposed to egg water. Survival numbers were recorded and EC50s calculated. The percentage (%) of embryos showing vascular leakage was also recorded and 1050s calculated.

H3K9me2 in HPMECs = assay: H3K9me2 Western blot in LPS-treated HPMECs; format: cell-based, human; conditions: LPS 1 ug/ml +/- UNC0642 2.5 nM, 24 hours
HUVEC monolayer = assay: Trans-endothelial electrical resistance (TEER) across HUVEC monolayer; format: cell-based, human; conditions: LPS 1 μg/ml + UNC0642 2.5 nM, 24 h post treatment
Experimental: (§2) To determine the functional significance of G9a inhibition in human cells, solute permeability and electrical resistance across a confluent HUVEC monolayer was assessed. For both experiments, HUVEC were seeded at 1×10^6 cells/ml on Matrigel™ coated 3-μm pore size transwell inserts in 24-well plates from BD Discovery Labware™ (catalog number 354575) and grown to confluency. The cells were then treated with either the vehicle, LPS (1 μg/ml) or LPS (1 μg/ml)+UNC0642 (2.5 nM).
Assessment of trans-endothelial electrical resistance (TEER): At 24 h post treatment, trans endothelial electrical resistance across the HUVEC monolayer was measured using the Endohm-12 (WPI, Florida). UNC0642 improves transendothelial electrical resistance (TEER) which is also an indicator of vessel integrity and stability. (FIG. 11, Panel B)

[3] = test system: LPS-induced tailfin edema; assay: Tailfin edema in LPS-treated zebrafish larvae; format: in vivo
Experimental: as §1

[4] = test system: human umbilical vein endothelial cells (HUVECs); assay: FITC dextran leakage assay in HUVEC monolayer; format: cell-based; conditions: HUVEC on transwell, LPS 1 μg/ml + UNC0642 2.5 nM
Experimental: as §2
Assessment of Paracellular Permeability: Dextran sulfate-FITC (3 kD, Invitrogen™ Molecular Probes catalog number D-3306) was added to the lower chamber to a final concentration of 10 μg/ml. Simultaneously, the different treatment conditions mentioned above were added to the lower chamber. FITC fluorescence was measured at different time intervals (0 h, 1.5 h, 2.5 h, 24 h) in samples taken from the top chamber as a measure of paracellular dextran leak. […] (FIG. 11, Panel A)

[5] = test system: IL-1, IL-6, TNFα and IL811 transcript levels; assay: Quantitative RT-PCR of pro-inflammatory cytokines in zebrafish sepsis model; format: in vivo; conditions: 3 dpf larvae, LPS 27 μg/ml (Salmonella) + 1 μM UNC0642, 24 h
From the text: Quantitative reverse transcription polymerase chain reaction (RT-PCR) was used to assess relative expression of cytokines (an average of 3 trials, each trial with a pool of 20 larvae/treatment) and cellular junction proteins (an average of 3 trials, each trial with a pool of 20 larvae/treatment), using elongation factor 1 a (EF1a) as the housekeeping gene control. […] UNC0642 reverses LPS induced reduction in the transcript levels of cellular junction proteins, namely occludin a, occludin b and ZO-1. UNC0642 also upregulates cellular junction protein transcript levels of occludin b, claudin 5a, claudin 5b and claudin 2, potentially improving vascular stability.
RNA extraction and cDNA synthesis. Wildtype zebrafish larvae (3 dpf) were exposed to Vehicle, LPS (27 μg/ml; LPS from Salmonella) or LPS+1 μM UNC0642 by static immersion for 24 h. Total RNA was extracted from these larvae (pool of 20 larvae/treatment) using the RNeasy extraction kit (Qiagen™, Mississauga, Ontario, Canada) and treated with DNase. The concentration of total RNA was determined spectrophotometrically at 260/280 nm using a NanoDrop™ spectrophotometer. […]
PCR conditions. […] The primers are not listed, since suitable primers will be readily apparent to the skilled person.

## COc1cc2c(NC3CCN(C(C)C)CC3)nc(N3CCC(F)(F)CC3)nc2cc1OCCCN1CCCC1 [UNC0642, 2-(4,4-Difluoropiperidin-1-yl)-6-methoxy-N-[1-(propan-2-yl)piperidin-4-yl]-7-(3-(pyrrolidin-1-yl)propoxy]quinazolin-4-amine]
[1]
  LPS-caused decrease in level and patterning of VE cadherin: partially rescued
[2]; 3 dpf larvae, LPS 100 μg/ml + 1 μM UNC0642, 6 h, leaked red blood cells at tail fin
  LPS-induced vascular leakage: significantly reduced
[2]; comparison of UNC0642 and A366, zebrafish larvae, 27 μg/ml LPS, 24 h
  Rescue of sepsis-associated vascular leakage: able to rescue
H3K9me2 in HPMECs
  H3K9me2 by Western Blot: decreased H3K9me2; also recorded: reduction in this H3K9me2
HUVEC monolayer
  Transendothelial electrical resistance (TEER): improves
[3]
  LPS-induced tailfin edema: significantly reduced
[4]
  LPS induced vessel permeability (FITC dextran leakage): protects against LPS induced vessel permeability
[5]
  LPS induced increases in transcript levels of pro-inflammatory cytokines IL-1, IL-6, TNFα and IL811: significantly mitigates
